# Data published in the supplement of paper PMC4862054.
# Tests used:
# Details in all cases: incubation time: 72 h
# BT-549 [1] = test: normalised response (% of control), CellTiter-Glo; higher = more viable cells (100 = DMSO, 0 = benzethonium chloride kill control)
# Procedure, shortened: (§1)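 Breast cancer cell lines in 20 µl suspension were added to 384-well plates containing compound at 5 concentrations, spaced in 10-fold steps across a 10,000-fold range chosen for each compound, and incubated for 72 h. CellTox Green fluorescence was read at 485/520 nm, followed by CellTiter-Glo luminescence after 10 min at room temperature. Signals on each plate were normalised so that 0.1 % DMSO equals 100 and a positive kill control equals 0. Every value in the table is the normalised signal at one concentration of the series.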
# DU-4475 [2] = test: as above
# Procedure, shortened: as §1
# MCF-10A = test: as above
# Procedure, shortened: as §1
# MDA-MB-468 [3] = test: as above
# Procedure, shortened: as §1
# BT-474 [4] = test: as above
# Procedure, shortened: as §1
# MDA-MB-231 [5] = test: as above
# Procedure, shortened: as §1
# HCC1599 [6] = test: as above
# Procedure, shortened: as §1
# CAL-120 [7] = test: as above
# Procedure, shortened: as §1
# CAL-85-1 [8] = test: as above
# Procedure, shortened: as §1
# SK-BR-3 [9] = test: as above
# Procedure, shortened: as §1
# HCC1143 [10] = test: as above
# Procedure, shortened: as §1
# CAL-148 [11] = test: as above
# Procedure, shortened: as §1
# Hs578T [12] = test: as above
# Procedure, shortened: as §1
# MDA-MB-453 [13] = test: as above
# Procedure, shortened: as §1
# HDQ-P1 [14] = test: as above
# Procedure, shortened: as §1
# HCC1937 [15] = test: as above
# Procedure, shortened: as §1
# MDA-MB-436 [16] = test: as above
# Procedure, shortened: as §1
# CAL-51 [17] = test: as above
# Procedure, shortened: as §1
# MFM-223 [18] = test: as above
# Procedure, shortened: as §1
# BT-549 [19] = test: normalised viability (% of control), CellTiter-Blue; higher = more viable cells (100 = DMSO, 0 = benzethonium chloride kill control)
# Procedure, shortened: (§2)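 Breast cancer cell lines in 20 µl suspension were seeded onto 384-well plates pre-loaded with compound dissolved in 5 µl medium, then incubated 72 h. CellTiter-Blue reagent (2.5 µl) was added for 2 h at 37 °C and fluorescence read at 560/590 nm. Each plate was normalised to vehicle (100) and a positive kill control (0), with Z'-factor quality control. The value is normalised viability at one listed concentration of the series.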
# DU-4475 [20] = test: as above
# Procedure, shortened: as §2
# MDA-MB-468 [21] = test: as above
# Procedure, shortened: as §2
# BT-474 [22] = test: as above
# Procedure, shortened: as §2
# MDA-MB-231 [23] = test: as above
# Procedure, shortened: as §2
# HCC1599 [24] = test: as above
# Procedure, shortened: as §2
# CAL-120 [25] = test: as above
# Procedure, shortened: as §2
# CAL-85-1 [26] = test: as above
# Procedure, shortened: as §2
# SK-BR-3 [27] = test: as above
# Procedure, shortened: as §2
# HCC1143 [28] = test: as above
# Procedure, shortened: as §2
# CAL-148 [29] = test: as above
# Procedure, shortened: as §2
# Hs578T [30] = test: as above
# Procedure, shortened: as §2
# MDA-MB-453 [31] = test: as above
# Procedure, shortened: as §2
# HDQ-P1 [32] = test: as above
# Procedure, shortened: as §2
# HCC1937 [33] = test: as above
# Procedure, shortened: as §2
# MDA-MB-436 [34] = test: as above
# Procedure, shortened: as §2
# CAL-51 [35] = test: as above
# Procedure, shortened: as §2
# MFM-223 [36] = test: as above
# Procedure, shortened: as §2
Compound,normalised response (BT-549 [1]),normalised response (DU-4475 [2]),normalised response (MCF-10A),normalised response (MDA-MB-468 [3]),normalised response (BT-474 [4]),normalised response (MDA-MB-231 [5]),normalised response (HCC1599 [6]),normalised response (CAL-120 [7]),normalised response (CAL-85-1 [8]),normalised response (SK-BR-3 [9]),normalised response (HCC1143 [10]),normalised response (CAL-148 [11]),normalised response (Hs578T [12]),normalised response (MDA-MB-453 [13]),normalised response (HDQ-P1 [14]),normalised response (HCC1937 [15]),normalised response (MDA-MB-436 [16]),normalised response (CAL-51 [17]),normalised response (MFM-223 [18]),normalised viability (BT-549 [19]),normalised viability (DU-4475 [20]),normalised viability (MDA-MB-468 [21]),normalised viability (BT-474 [22]),normalised viability (MDA-MB-231 [23]),normalised viability (HCC1599 [24]),normalised viability (CAL-120 [25]),normalised viability (CAL-85-1 [26]),normalised viability (SK-BR-3 [27]),normalised viability (HCC1143 [28]),normalised viability (CAL-148 [29]),normalised viability (Hs578T [30]),normalised viability (MDA-MB-453 [31]),normalised viability (HDQ-P1 [32]),normalised viability (HCC1937 [33]),normalised viability (MDA-MB-436 [34]),normalised viability (CAL-51 [35]),normalised viability (MFM-223 [36])
COc1ccc(C2=N[C@@H](c3ccc(Cl)cc3)[C@@H](c3ccc(Cl)cc3)N2C(=O)N2CCNC(=O)C2)c(OC(C)C)c1 [Nutlin-3] (1 nM),97.7%,106%,101%,98.6%,99.8%,105%,104%,94.6%,102%,106%,103%,115%,103%,114%,105%,103%,119%,84.8%,101%,107%,82.5%,92.8%,110%,101%,91.6%,78.7%,90.5%,95.6%,89.8%,104%,95.9%,102%,89%,71.5%,101%,96.3%,89.4%
COC1=CC(c2cc3ccccc3[nH]2)=N/C1=C\c1[nH]c(C)cc1C [Obatoclax] (1 nM),97.7%,100%,87%,98.7%,96.6%,96.6%,87.7%,96.4%,95%,89%,92.5%,87.8%,93.5%,90.6%,92.9%,95.4%,95.6%,111%,92.8%,90.6%,93.6%,99%,96.2%,71.4%,85.6%,79.6%,78.3%,74.9%,81%,94.7%,103%,86.2%,78.8%,90.5%,83.5%,105%,81%
COC(=O)C[C@](O)(CCCC(C)(C)O)C(=O)O[C@@H]1C(OC)=C[C@]23CCCN2CCc2cc4c(cc2[C@H]13)OCO4 [Omacetaxine] (1 nM),92.1%,96%,108%,108%,106%,104%,88.4%,99.8%,101%,108%,109%,110%,101%,121%,104%,98.3%,97.1%,79.9%,103%,95.4%,93.6%,95.2%,101%,97.3%,78.4%,82%,90.6%,97.3%,91.7%,107%,106%,91.6%,84.7%,96.5%,91.1%,96.3%,90.3%
CC(=O)O[C@H]1C(=O)[C@@]2(C)[C@H]([C@H](OC(=O)c3ccccc3)[C@]3(O)C[C@H](OC(=O)[C@H](O)[C@@H](NC(=O)c4ccccc4)c4ccccc4)C(C)=C1C3(C)C)[C@]1(OC(C)=O)CO[C@@H]1C[C@@H]2O [Paclitaxel] (0.1 nM),100%,93.8%,87.9%,95.7%,95.5%,96.6%,100%,89.7%,99.2%,88.4%,93.6%,89.6%,100%,89.9%,96.4%,90.5%,98.7%,103%,89.9%,116%,115%,105%,82%,73.8%,102%,90.6%,98.2%,90.2%,106%,106%,103%,97.5%,82.6%,84.3%,95.8%,93.8%,93.9%
